As usually defined, the IC50 is the point on the concentration scale where inhibition reaches its midpoint. Read a high IC50 as weaker potency.

Test [1] addresses T1, Peptidyl-prolyl cis-trans isomerase NIMA-interacting 1 (Homo sapiens, UniProt Q13526). Briefly: Inhibition of human N-terminal His6-tagged Pin1 PPIase activity expressed in Escherichia coli BL21 using Suc-Ala-Glu-cis-Pro-Phe-4-nitroanilide as substrate preincubated for 10 mins followed by substrate addition monitored for 90 secs by protease enzyme coupled based spectrophotometric analysis.

In test [2] the target is T1, Peptidyl-prolyl cis-trans isomerase NIMA-interacting 1. Briefly: Inhibition of human N-terminal His6-tagged Pin1 PPIase activity expressed in Escherichia coli BL21 using Suc-Ala-Glu-cis-Pro-Phe-4-nitroanilide as substrate by beckman coulter-paradigm assay. The note with it: TDE = time-dependent effect.

T1 sequence (Q13526 whole entry): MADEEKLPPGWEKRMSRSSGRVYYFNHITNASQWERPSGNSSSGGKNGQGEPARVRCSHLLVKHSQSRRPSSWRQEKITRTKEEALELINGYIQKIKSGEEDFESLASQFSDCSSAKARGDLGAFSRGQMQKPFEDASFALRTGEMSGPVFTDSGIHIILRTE

The compound `N#Cc1cnc(Cl)nc1Oc1ccccc1` came in with a half-maximal inhibitory concentration (IC50) in test [1] of 4.36 µM. Turning to `O=[N+]([O-])c1cnc(OCCc2ccccc2)nc1Cl`, the IC50 in test [1] is 7.27 µM. Compound `O=[N+]([O-])c1ccc(Cl)nc1Oc1cccc2ocnc12` returned a half-inhibitory concentration (IC50) in test [1] greater than 100 µM. On the same count and under the same terms, then `O=[N+]([O-])c1cnc(Cl)nc1Oc1ccccc1F`, with 2.52 µM; and `Cc1cnc(Cl)nc1Oc1cccc2ocnc12`, with greater than 100 µM. Turning to `O=[N+]([O-])c1cnc(Cl)nc1OCc1ccccc1`, the IC50 in test [1] was determined as 8.33 µM. Also, the inhibition result in test [2] is “Tde”. In test [1], `O=[N+]([O-])c1cnc(Cl)nc1Nc1ccccc1` yielded a 50% inhibitory concentration (IC50) of 6.66 µM. That is a single-digit micromolar value. Take `CNc1nc(Cl)ncc1[N+](=O)[O-]`: the IC50 in test [1] was greater than 100 µM. In test [1], `COC(=O)c1cnc(Cl)nc1Oc1cccc2ocnc12` had an IC50 greater than 100 µM. In turn, `O=[N+]([O-])c1cnc(Cl)nc1Oc1cccc2ocnc12` gave a half-maximal inhibitory concentration (IC50) in test [1] of 1.68 µM. The inhibition result in test [2] is “Tde”. In test [1], `O=[N+]([O-])c1cnc(Cl)nc1Oc1cccc2ccccc12` gave an IC50 of 22.6 µM.

Take `Clc1ncc(-c2ncco2)c(Nc2ccccc2)n1`: in test [1], the IC50 stood at 9.87 µM. Compared with the last compound, the IC50 is about 2.3-fold lower. Compound `O=[N+]([O-])c1cnc(Cl)nc1Oc1ccccc1` had a 50% inhibitory concentration (IC50) in test [1] of 2.24 µM. Moreover, the inhibition entry in test [2] was “Tde”. For the compound `Clc1ncc(Cl)c(Oc2ccccc2)n1`, the IC50 in test [1] is greater than 100 µM.

`O=[N+]([O-])c1cnc(Cl)nc1OCCc1ccccc1` registered a 50% inhibitory concentration (IC50) in test [1] of 4.08 µM. Regarding `Cc1cnc(Cl)nc1Oc1ccccc1`, the IC50 in test [1] was greater than 100 µM. `O=[N+]([O-])c1cnc(-c2ccccc2)nc1Oc1cccc2ocnc12` yielded a half-inhibitory concentration (IC50) in test [1] greater than 100 µM.

As for `O=[N+]([O-])c1cnc(Cl)cc1Oc1cccc2ocnc12`, in test [1], the IC50 is greater than 100 µM. Compound `O=[N+]([O-])c1cnc(CCc2ccccc2)nc1Cl` gave an IC50 in test [1] of 13.9 µM. The same measure, in the same setting: then `FC(F)(F)c1cnc(Cl)nc1Oc1cccc2ocnc12`, with greater than 100 µM; and `O=C1CCC(=O)N1c1cnc(Cl)nc1Nc1ccccc1`, with greater than 100 µM; and `COc1cccc(Oc2nc(Cl)ncc2[N+](=O)[O-])c1`, with 5.04 µM. Regarding `CC1=C(/C=C/C(C)=C/C=C/C(C)=C/C(=O)O)C(C)(C)CCC1` [TRETINOIN], the 50% inhibitory concentration (IC50) in test [1] turned out to be 0.82 µM. Same read-out and setting: the same measure for `O=[N+]([O-])c1cnc(Cl)nc1OC1CCCCC1`: greater than 100 µM; for `O=C1C=CC(=O)c2c(O)cccc21` [JUGLONE]: 5.9 µM; for `O=[N+]([O-])c1cncnc1Oc1cccc2ocnc12`: greater than 100 µM. For `O=[N+]([O-])c1cnc(OCc2ccccc2)nc1Cl`, the half-inhibitory concentration (IC50) in test [1] turned out to be 7.28 µM. Further, the inhibition result in test [2] is “Tde”.

In test [1], `O=C1C=CC(=O)N1c1cnc(Cl)nc1Nc1ccccc1` returned an IC50 of 20.2 µM. In turn, `FC(F)(F)c1cnc(Cl)nc1Oc1ccccc1` displayed an IC50 in test [1] greater than 100 µM. Compound `O=[N+]([O-])c1cnc(-c2ccc3ccccc3c2)nc1Oc1cccc2ocnc12` displayed an IC50 in test [1] greater than 100 µM.

In test [1], `O=[N+]([O-])c1cnc(Cl)nc1NC1CCCCC1` gave an IC50 greater than 100 µM.

Turning to `COc1ccccc1Oc1nc(Cl)ncc1[N+](=O)[O-]`, 4.03 µM corresponded to half-maximal inhibition in test [1] (IC50). For `O=[N+]([O-])c1cnc(Cl)nc1OC1CCCC1`, the IC50 in test [1] is greater than 100 µM. In the case of `Cn1nc(-c2ccccc2)cc1Oc1nc(Cl)ncc1[N+](=O)[O-]`, in test [1], the IC50 is 2.17 µM. Consider `O=[N+]([O-])c1cnc(Cl)nc1NC1CCCC1`, for which, in test [1], the IC50 was greater than 100 µM.

In the case of `O=C(O)c1cnc(Cl)nc1Oc1cccc2ocnc12`, it took 18.9 µM to reach half-maximal inhibition in test [1] (IC50). In other words, the double-digit micromolar range. On to `O=[N+]([O-])c1cnc(Cl)nc1Oc1ccc2ccccc2c1`, for which the IC50 in test [1] is 16.6 µM. This IC50 and that of the compound before are within 1.5-fold of each other. Take `Clc1ncc(-c2nnco2)c(Nc2ccccc2)n1`: the IC50 in test [1] is greater than 100 µM. On to `N#Cc1ccccc1Oc1nc(Cl)ncc1[N+](=O)[O-]`, for which inhibition in test [1] was half-maximal at 9.05 µM (IC50). Turning to `O=[N+]([O-])c1cnc(Cl)nc1Oc1ccc(-c2ccccc2)cc1`, the IC50 in test [1] was 34 µM. `O=[N+]([O-])c1cnc(Cl)nc1Oc1ccccn1` had a half-maximal inhibitory concentration (IC50) in test [1] of 3.48 µM. This IC50 is about 9.8-fold lower than that of the compound before. The same measure, in the same setting: the same measure for `Nc1ccccc1Oc1nc(Cl)ncc1[N+](=O)[O-]`: 33.5 µM; for `O=[N+]([O-])c1cnc(Cl)nc1NCCc1ccccc1`: greater than 100 µM; for `CS(=O)(=O)Nc1ccccc1Oc1nc(Cl)ncc1[N+](=O)[O-]`: 5.2 µM.

Values taken from ChEMBL document CHEMBL4219172, “Synthesis and biological evaluation of pyrimidine derivatives as novel human Pin1 inhibitors” (Bioorg Med Chem, 2018).
